Source: ChEMBL document CHEMBL1201862, “PubChem BioAssay data set” (2004)
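Each compound was tested at five concentrations against cells in 96-well plates for 48 hours. Abbreviation: GI50, concentration required for 50% inhibition of growth.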 The source made the active and inactive calls. Rule as the data show it: active = GI50 up to about 1.1 µM and inactive = higher.

What was measured:
Assay in all cases: DTP human tumour cell line panel, 48 h
ACHN = system: ACHN
MDA-MB-231 = system: MDA-MB-231
RXF 393 = system: RXF 393
HCT-116 = system: HCT-116
RPMI-8226 = system: RPMI-8226
SF-295 = system: SF-295
SK-MEL-5 = system: SK-MEL-5
786-0 = system: 786-0
T47D = system: T47D
DU-145 = system: DU-145
KM12 = system: KM12
K562 = system: K562
MDA-N = system: MDA-N
TK-10 = system: TK-10
UACC-257 = system: UACC-257
OVCAR-8 = system: OVCAR-8
HT-29 = system: HT-29
SK-MEL-28 = system: SK-MEL-28
HCC 2998 = system: HCC 2998
NCI/ADR-RES = system: NCI/ADR-RES
IGROV-1 = system: IGROV-1
Malme-3M = system: Malme-3M
UACC-62 = system: UACC-62
HOP-62 = system: HOP-62
A549 = system: A549
SN12C = system: SN12C
A498 = system: A498
CAKI-1 = system: CAKI-1
LOX IMVI = system: LOX IMVI
SW-620 = system: SW-620
MCF7 = system: MCF7
OVCAR-4 = system: OVCAR-4
NCI-H23 = system: NCI-H23
MOLT-4 = system: MOLT-4
PC-3 = system: PC-3
EKVX = system: EKVX
SNB-75 = system: SNB-75
M14 = system: M14
HCT-15 = system: HCT-15
U-251 = system: U-251
BT-549 = system: BT-549
SF-539 = system: SF-539
COLO 205 = system: COLO 205
OVCAR-5 = system: OVCAR-5
SK-OV-3 = system: SK-OV-3
NCI-H522 = system: NCI-H522
NCI-H226 = system: NCI-H226
SK-MEL-2 = system: SK-MEL-2
MDA-MB-435 = system: MDA-MB-435
UO-31 = system: UO-31
SNB-19 = system: SNB-19
NCI-H460 = system: NCI-H460
SF-268 = system: SF-268
SR = system: SR

## O=C(O)C[C@@H]1[C@@H](O)[C@@H](O)CN2C(=O)c3ccccc3[C@H]12
ACHN
  GI50: > 100 µM (inactive)
MDA-MB-231
  GI50: > 100 µM (inactive)
RXF 393
  GI50: > 100 µM (inactive)
HCT-116
  GI50: > 100 µM (inactive)
RPMI-8226
  GI50: > 100 µM (inactive)
SF-295
  GI50: > 100 µM (inactive)
SK-MEL-5
  GI50: > 100 µM (inactive)
786-0
  GI50: > 100 µM (inactive)
T47D
  GI50: > 100 µM (inactive)
DU-145
  GI50: > 100 µM (inactive)
KM12
  GI50: > 100 µM (inactive)
K562
  GI50: > 100 µM (inactive)
MDA-N
  GI50: > 100 µM (inactive)
TK-10
  GI50: > 100 µM (inactive)
UACC-257
  GI50: > 100 µM (inactive)
OVCAR-8
  GI50: > 100 µM (inactive)
HT-29
  GI50: > 100 µM (inactive)
SK-MEL-28
  GI50: > 100 µM (inactive)
HCC 2998
  GI50: > 100 µM (inactive)
NCI/ADR-RES
  GI50: > 100 µM (inactive)
IGROV-1
  GI50: > 100 µM (inactive)
Malme-3M
  GI50: > 100 µM (inactive)
UACC-62
  GI50: > 100 µM (inactive)
HOP-62
  GI50: > 100 µM (inactive)
A549
  GI50: > 100 µM (inactive)
SN12C
  GI50: > 100 µM (inactive)
A498
  GI50: > 100 µM (inactive)
CAKI-1
  GI50: > 100 µM (inactive)
LOX IMVI
  GI50: > 100 µM (inactive)
SW-620
  GI50: > 100 µM (inactive)
MCF7
  GI50: > 100 µM (inactive)
OVCAR-4
  GI50: > 100 µM (inactive)
NCI-H23
  GI50: > 100 µM (inactive)
MOLT-4
  GI50: > 100 µM (inactive)
PC-3
  GI50: > 100 µM (inactive)
EKVX
  GI50: > 100 µM (inactive)
SNB-75
  GI50: > 100 µM (inactive)
M14
  GI50: > 100 µM (inactive)
HCT-15
  GI50: > 100 µM
U-251
  GI50: > 100 µM (inactive)
BT-549
  GI50: > 100 µM (inactive)
SF-539
  GI50: > 100 µM (inactive)
COLO 205
  GI50: > 100 µM (inactive)
OVCAR-5
  GI50: > 100 µM (inactive)
SK-OV-3
  GI50: > 100 µM (inactive)
NCI-H522
  GI50: > 100 µM (inactive)
NCI-H226
  GI50: > 100 µM (inactive)
SK-MEL-2
  GI50: > 100 µM (inactive)
MDA-MB-435
  GI50: > 100 µM (inactive)
UO-31
  GI50: > 100 µM (inactive)
SNB-19
  GI50: > 100 µM (inactive)
NCI-H460
  GI50: > 100 µM (inactive)
SF-268
  GI50: > 100 µM (inactive)
SR
  GI50: > 100 µM (inactive)
